Experiments:
Assay in all cases: Kinase profiling
Assay type in all cases: biochemical
[1] = target: T1, Blk(h) (Homo sapiens, UniProt P51451)
T1 construct: purchased Eurofins Cerep SA (KinaseProfiler)
Experimental: (§1) 380 kinases inhibitory activities of SKLB-D18 were conducted by Eurofins Cerep SA. The result was illustrated by kinase tree (http://www.kinhub.org/kinmap/).

[2] = target: T2, MELK(h) (Homo sapiens, UniProt Q14680)
T2 construct: purchased Eurofins Cerep SA (KinaseProfiler)
Experimental: as §1

[3] = target: T3, CDK2/cyclinE(h) (Homo sapiens, UniProt P24941)
T3 construct: purchased Eurofins Cerep SA (KinaseProfiler)
Experimental: as §1

[4] = target: T4, CHK2(h) (Homo sapiens, UniProt O96017)
T4 construct: purchased Eurofins Cerep SA (KinaseProfiler)
Experimental: as §1

[5] = target: T5, PI3 Kinase (p110b/p85a)(h) (Homo sapiens, UniProt P42338)
T5 construct: purchased Eurofins Cerep SA (KinaseProfiler)
Experimental: as §1

[6] = target: T6, EphA8(h) (Homo sapiens, UniProt P29322)
T6 construct: purchased Eurofins Cerep SA (KinaseProfiler)
Experimental: as §1

[7] = target: T7, HIPK1(h) (Homo sapiens, UniProt Q86Z02)
T7 construct: purchased Eurofins Cerep SA (KinaseProfiler)
Experimental: as §1

[8] = target: T8, MST2(h) (Homo sapiens, UniProt Q13188)
T8 construct: purchased Eurofins Cerep SA (KinaseProfiler)
Experimental: as §1

[9] = target: T9, GRK4(h) (Homo sapiens, UniProt P32298)
T9 construct: purchased Eurofins Cerep SA (KinaseProfiler)
Experimental: as §1

[10] = target: T10, CK1γ1(h) (Homo sapiens, UniProt Q9HCP0)
T10 construct: purchased Eurofins Cerep SA (KinaseProfiler)
Experimental: as §1

[11] = target: T11, Mnk1(h) (Homo sapiens, UniProt Q9BUB5)
T11 construct: purchased Eurofins Cerep SA (KinaseProfiler)
Experimental: as §1

[12] = target: T12, PTK5(h) (Homo sapiens, UniProt P42685)
T12 construct: purchased Eurofins Cerep SA (KinaseProfiler)
Experimental: as §1

[13] = target: T13, GRK7(h) (Homo sapiens, UniProt Q8WTQ7)
T13 construct: purchased Eurofins Cerep SA (KinaseProfiler)
Experimental: as §1

[14] = target: T14, LIMK1(h) (Homo sapiens, UniProt P53667)
T14 construct: purchased Eurofins Cerep SA (KinaseProfiler)
Experimental: as §1

[15] = target: T15, CDK4/cyclinD3(h) (Homo sapiens, UniProt P11802)
T15 construct: purchased Eurofins Cerep SA (KinaseProfiler)
Experimental: as §1

[16] = target: T16, CHK1(h) (Homo sapiens, UniProt O14757)
T16 construct: purchased Eurofins Cerep SA (KinaseProfiler)
Experimental: as §1

[17] = target: T17, CK2(h) (Homo sapiens, UniProt P68400)
T17 construct: purchased Eurofins Cerep SA (KinaseProfiler)
Experimental: as §1

[18] = target: T18, CDKL1(h) (Homo sapiens, UniProt Q00532)
T18 construct: purchased Eurofins Cerep SA (KinaseProfiler)
Experimental: as §1

[19] = target: T19, NDR2(h) (Homo sapiens, UniProt Q9Y2H1)
T19 construct: purchased Eurofins Cerep SA (KinaseProfiler)
Experimental: as §1

[20] = target: T20, CaMKI(h) (Homo sapiens, UniProt Q14012)
T20 construct: purchased Eurofins Cerep SA (KinaseProfiler)
Experimental: as §1

[21] = target: T21, DRAK2(h) (Homo sapiens, UniProt O94768)
T21 construct: purchased Eurofins Cerep SA (KinaseProfiler)
Experimental: as §1

[22] = target: T22, PEK(h) (Homo sapiens, UniProt Q9NZJ5)
T22 construct: purchased Eurofins Cerep SA (KinaseProfiler)
Experimental: as §1

[23] = target: T23, cSRC(h) (Homo sapiens, UniProt P12931)
T23 construct: purchased Eurofins Cerep SA (KinaseProfiler)
Experimental: as §1

[24] = target: T24, CDK6/cyclinD3(h) (Homo sapiens, UniProt Q00534)
T24 construct: purchased Eurofins Cerep SA (KinaseProfiler)
Experimental: as §1

[25] = target: T25, MINK(h) (Homo sapiens, UniProt Q8N4C8)
T25 construct: purchased Eurofins Cerep SA (KinaseProfiler)
Experimental: as §1

[26] = target: T26, LKB1(h) (Homo sapiens, UniProt Q15831)
T26 construct: purchased Eurofins Cerep SA (KinaseProfiler)
Experimental: as §1

[27] = target: T27, MRCKβ(h) (Homo sapiens, UniProt Q9Y5S2)
T27 construct: purchased Eurofins Cerep SA (KinaseProfiler)
Experimental: as §1

[28] = target: T28, IRAK4(h) (Homo sapiens, UniProt Q9NWZ3)
T28 construct: purchased Eurofins Cerep SA (KinaseProfiler)
Experimental: as §1

[29] = target: T29, PDGFRα(h) (Homo sapiens, UniProt P16234)
T29 construct: purchased Eurofins Cerep SA (KinaseProfiler)
Experimental: as §1

[30] = target: T30, ALK(h) (Homo sapiens, UniProt Q9UM73)
T30 construct: purchased Eurofins Cerep SA (KinaseProfiler)
Experimental: as §1

[31] = target: T31, Plk4(h) (Homo sapiens, UniProt O00444)
T31 construct: purchased Eurofins Cerep SA (KinaseProfiler)
Experimental: as §1

[32] = target: T32, Axl(h) (Homo sapiens, UniProt P30530)
T32 construct: purchased Eurofins Cerep SA (KinaseProfiler)
Experimental: as §1

[33] = target: T33, PKCι(h) (Homo sapiens, UniProt P41743)
T33 construct: purchased Eurofins Cerep SA (KinaseProfiler)
Experimental: as §1

[34] = target: T34, COT(h) (Homo sapiens, UniProt P41279)
T34 construct: purchased Eurofins Cerep SA (KinaseProfiler)
Experimental: as §1

[35] = target: T35, MKK6(h) (Homo sapiens, UniProt P52564)
T35 construct: purchased Eurofins Cerep SA (KinaseProfiler)
Experimental: as §1

[36] = target: T36, Rse(h) (Homo sapiens, UniProt Q06418)
T36 construct: purchased Eurofins Cerep SA (KinaseProfiler)
Experimental: as §1

[37] = target: T37, eEF-2K(h) (Homo sapiens, UniProt O00418)
T37 construct: purchased Eurofins Cerep SA (KinaseProfiler)
Experimental: as §1

[38] = target: T38, PDK1(h) (Homo sapiens, UniProt O15530)
T38 construct: purchased Eurofins Cerep SA (KinaseProfiler)
Experimental: as §1

[39] = target: T39, MARK4(h) (Homo sapiens, UniProt Q96L34)
T39 construct: purchased Eurofins Cerep SA (KinaseProfiler)
Experimental: as §1

[40] = target: T40, CK2α2(h) (Homo sapiens, UniProt P19784)
T40 construct: purchased Eurofins Cerep SA (KinaseProfiler)
Experimental: as §1

[41] = target: T41, SGK(h) (Homo sapiens, UniProt O00141)
T41 construct: purchased Eurofins Cerep SA (KinaseProfiler)
Experimental: as §1

T20 sequence (Q14012 whole entry): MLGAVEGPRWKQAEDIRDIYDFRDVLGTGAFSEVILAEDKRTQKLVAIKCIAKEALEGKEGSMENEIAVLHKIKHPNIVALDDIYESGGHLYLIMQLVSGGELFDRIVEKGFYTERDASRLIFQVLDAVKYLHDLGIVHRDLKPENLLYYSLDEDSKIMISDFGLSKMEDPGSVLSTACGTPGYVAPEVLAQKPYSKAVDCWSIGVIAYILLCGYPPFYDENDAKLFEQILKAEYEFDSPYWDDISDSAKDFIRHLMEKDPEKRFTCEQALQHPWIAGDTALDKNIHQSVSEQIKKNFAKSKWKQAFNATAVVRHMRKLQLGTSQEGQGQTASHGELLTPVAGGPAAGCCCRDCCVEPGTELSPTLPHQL
T13 sequence (Q8WTQ7 whole entry): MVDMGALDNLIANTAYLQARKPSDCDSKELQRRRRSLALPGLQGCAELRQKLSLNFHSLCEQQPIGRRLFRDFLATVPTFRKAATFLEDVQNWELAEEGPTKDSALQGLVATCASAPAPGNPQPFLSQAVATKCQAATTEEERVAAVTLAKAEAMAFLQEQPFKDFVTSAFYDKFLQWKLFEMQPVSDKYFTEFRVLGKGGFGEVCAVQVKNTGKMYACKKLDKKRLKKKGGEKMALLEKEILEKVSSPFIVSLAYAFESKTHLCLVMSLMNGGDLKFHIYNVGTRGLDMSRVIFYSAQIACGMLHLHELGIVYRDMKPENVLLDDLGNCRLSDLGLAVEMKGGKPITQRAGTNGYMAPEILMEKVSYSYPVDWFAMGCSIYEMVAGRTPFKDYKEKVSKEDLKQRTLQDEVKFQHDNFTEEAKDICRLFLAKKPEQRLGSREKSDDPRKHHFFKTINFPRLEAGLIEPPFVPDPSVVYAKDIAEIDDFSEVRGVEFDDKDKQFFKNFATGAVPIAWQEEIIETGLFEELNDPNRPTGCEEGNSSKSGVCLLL
T41 sequence (O00141 whole entry): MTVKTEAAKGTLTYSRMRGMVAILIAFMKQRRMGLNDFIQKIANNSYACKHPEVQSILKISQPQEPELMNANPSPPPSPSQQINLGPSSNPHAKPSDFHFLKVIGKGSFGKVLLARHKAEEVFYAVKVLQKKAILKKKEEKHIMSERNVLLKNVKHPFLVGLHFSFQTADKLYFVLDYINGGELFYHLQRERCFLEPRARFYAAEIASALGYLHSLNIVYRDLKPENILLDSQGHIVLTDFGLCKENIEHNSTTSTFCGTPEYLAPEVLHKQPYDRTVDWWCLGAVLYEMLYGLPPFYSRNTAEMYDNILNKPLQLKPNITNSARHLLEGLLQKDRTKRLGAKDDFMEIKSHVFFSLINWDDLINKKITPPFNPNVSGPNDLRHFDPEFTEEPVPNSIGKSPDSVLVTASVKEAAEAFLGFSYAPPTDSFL
T5 sequence (P42338 whole entry): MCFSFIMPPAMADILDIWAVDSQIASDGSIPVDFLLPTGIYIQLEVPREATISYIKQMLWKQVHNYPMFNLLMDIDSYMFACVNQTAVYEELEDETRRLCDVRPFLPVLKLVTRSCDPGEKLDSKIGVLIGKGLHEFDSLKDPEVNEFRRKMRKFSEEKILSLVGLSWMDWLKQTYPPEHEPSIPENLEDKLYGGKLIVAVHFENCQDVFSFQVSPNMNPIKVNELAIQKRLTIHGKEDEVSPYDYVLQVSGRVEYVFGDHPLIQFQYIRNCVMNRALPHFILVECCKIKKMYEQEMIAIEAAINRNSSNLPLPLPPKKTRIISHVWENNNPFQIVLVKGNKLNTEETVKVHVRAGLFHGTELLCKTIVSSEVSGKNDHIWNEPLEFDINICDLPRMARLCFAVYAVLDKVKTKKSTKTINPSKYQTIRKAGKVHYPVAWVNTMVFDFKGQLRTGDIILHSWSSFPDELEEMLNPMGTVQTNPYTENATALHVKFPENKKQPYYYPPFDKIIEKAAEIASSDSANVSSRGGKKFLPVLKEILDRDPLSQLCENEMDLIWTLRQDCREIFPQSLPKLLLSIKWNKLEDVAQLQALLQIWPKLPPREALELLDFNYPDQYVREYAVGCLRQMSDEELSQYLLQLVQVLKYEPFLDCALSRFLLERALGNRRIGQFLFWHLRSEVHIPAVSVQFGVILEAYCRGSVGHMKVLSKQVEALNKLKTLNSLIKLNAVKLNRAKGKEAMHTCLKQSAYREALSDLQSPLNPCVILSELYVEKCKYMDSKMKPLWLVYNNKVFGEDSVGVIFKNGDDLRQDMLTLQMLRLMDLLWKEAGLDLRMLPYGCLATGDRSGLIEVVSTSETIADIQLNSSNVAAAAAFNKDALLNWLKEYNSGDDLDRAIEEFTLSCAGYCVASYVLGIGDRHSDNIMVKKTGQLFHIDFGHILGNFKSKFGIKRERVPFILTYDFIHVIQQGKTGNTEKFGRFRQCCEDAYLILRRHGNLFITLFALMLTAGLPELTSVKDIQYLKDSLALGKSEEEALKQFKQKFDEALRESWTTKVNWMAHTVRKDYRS
T5 sequence (P27986 whole entry partner): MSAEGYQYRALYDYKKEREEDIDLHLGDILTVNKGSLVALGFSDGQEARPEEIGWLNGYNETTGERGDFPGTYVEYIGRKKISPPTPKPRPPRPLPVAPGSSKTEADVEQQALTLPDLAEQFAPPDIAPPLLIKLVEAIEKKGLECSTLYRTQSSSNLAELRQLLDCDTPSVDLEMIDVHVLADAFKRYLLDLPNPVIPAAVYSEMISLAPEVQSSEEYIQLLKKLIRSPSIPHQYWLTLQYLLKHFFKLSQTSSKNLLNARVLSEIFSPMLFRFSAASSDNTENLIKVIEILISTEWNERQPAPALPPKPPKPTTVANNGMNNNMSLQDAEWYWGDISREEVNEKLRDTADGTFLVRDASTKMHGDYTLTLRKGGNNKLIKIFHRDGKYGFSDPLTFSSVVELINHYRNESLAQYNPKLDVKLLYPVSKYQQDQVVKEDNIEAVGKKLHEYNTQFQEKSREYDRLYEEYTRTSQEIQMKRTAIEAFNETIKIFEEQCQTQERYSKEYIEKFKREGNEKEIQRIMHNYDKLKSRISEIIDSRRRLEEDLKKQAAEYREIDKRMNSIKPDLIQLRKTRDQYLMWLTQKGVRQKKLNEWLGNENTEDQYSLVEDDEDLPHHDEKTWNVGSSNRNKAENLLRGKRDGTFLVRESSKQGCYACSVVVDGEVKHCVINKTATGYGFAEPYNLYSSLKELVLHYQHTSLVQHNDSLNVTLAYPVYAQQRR
T24 sequence (Q00534 whole entry): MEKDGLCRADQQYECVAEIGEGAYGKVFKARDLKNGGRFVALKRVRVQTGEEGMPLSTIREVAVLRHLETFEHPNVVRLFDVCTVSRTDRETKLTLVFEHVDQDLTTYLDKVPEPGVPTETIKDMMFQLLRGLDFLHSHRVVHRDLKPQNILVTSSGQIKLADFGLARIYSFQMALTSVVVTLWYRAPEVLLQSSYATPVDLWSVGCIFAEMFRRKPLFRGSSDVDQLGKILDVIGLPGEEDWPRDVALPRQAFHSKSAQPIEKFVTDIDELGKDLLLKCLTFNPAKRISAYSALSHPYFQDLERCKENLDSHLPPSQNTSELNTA
T24 sequence (P30281 whole entry partner): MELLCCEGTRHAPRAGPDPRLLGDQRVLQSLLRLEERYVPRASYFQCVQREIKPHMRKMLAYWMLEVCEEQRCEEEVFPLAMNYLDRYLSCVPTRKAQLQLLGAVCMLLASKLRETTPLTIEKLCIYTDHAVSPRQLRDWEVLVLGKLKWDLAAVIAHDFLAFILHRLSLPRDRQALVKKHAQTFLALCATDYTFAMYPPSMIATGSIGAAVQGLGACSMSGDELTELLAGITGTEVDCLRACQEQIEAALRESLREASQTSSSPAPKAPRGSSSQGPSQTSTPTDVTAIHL
T15 sequence (P11802 whole entry): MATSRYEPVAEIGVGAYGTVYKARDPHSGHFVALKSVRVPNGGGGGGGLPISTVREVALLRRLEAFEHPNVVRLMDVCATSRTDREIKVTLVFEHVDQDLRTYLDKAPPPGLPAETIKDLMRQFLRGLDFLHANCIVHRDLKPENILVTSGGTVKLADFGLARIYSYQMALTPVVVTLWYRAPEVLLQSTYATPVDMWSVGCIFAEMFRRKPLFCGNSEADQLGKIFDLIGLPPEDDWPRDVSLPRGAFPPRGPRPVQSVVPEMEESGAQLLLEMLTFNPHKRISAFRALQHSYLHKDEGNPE
T15 sequence (P30281 whole entry partner): as the sequence (P30281 whole entry partner) above
T34 sequence (P41279 whole entry): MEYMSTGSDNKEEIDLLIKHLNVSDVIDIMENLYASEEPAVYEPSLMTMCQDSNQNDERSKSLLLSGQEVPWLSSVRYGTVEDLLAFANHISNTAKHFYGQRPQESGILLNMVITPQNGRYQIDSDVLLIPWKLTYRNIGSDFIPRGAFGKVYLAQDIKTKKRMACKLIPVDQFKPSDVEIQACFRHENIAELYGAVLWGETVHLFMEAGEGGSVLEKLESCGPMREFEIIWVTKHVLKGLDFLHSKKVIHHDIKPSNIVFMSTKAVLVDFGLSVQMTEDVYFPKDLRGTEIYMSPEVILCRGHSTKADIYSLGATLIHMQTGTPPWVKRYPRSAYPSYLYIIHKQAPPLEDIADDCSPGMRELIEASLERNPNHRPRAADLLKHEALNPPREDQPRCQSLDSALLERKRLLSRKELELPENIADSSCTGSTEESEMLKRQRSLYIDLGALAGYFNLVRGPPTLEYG
T35 sequence (P52564 whole entry): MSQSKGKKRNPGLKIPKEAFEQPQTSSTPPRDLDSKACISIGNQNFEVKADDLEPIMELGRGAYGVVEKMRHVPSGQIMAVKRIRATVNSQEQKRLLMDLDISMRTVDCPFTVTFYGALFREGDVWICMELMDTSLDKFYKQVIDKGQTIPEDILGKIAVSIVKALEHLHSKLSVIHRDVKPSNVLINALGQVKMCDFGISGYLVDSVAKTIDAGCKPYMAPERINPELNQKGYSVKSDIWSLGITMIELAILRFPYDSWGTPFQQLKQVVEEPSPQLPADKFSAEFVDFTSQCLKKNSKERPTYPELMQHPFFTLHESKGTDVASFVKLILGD

**Q.** How did the inhibition at 1 µM [1] turn out when CN(C)Cc1cccc(Nc2ncc(Cl)c(-c3csc(C(=O)NN4CCOCC4)c3)n2)c1 [SKLB-D18, 4-(5-chloro-2-((3-((dimethylamino)methyl)phenyl)amino)pyrimidin-4-yl)-N-morpholinothiophene-2-carboxamide] was run?
**A.** Its inhibition at 1 µM is -5%.

**Q.** And the inhibition at 1 µM [2]?
**A.** The inhibition at 1 µM was 62%.

**Q.** What about the inhibition at 1 µM [3] of the same molecule?
**A.** Its inhibition at 1 µM is 48%.

**Q.** And the inhibition at 1 µM [4]?
**A.** The inhibition at 1 µM was 19%.

**Q.** What about the inhibition at 1 µM [5] of the same molecule?
**A.** The inhibition at 1 µM was 8%.

**Q.** And the inhibition at 1 µM [6]?
**A.** Its inhibition at 1 µM is 14%.

**Q.** What about the inhibition at 1 µM [7] of the same molecule?
**A.** Its inhibition at 1 µM is 68%.

**Q.** What about the inhibition at 1 µM [8] of the same molecule?
**A.** Its inhibition at 1 µM is 40%.

**Q.** What about the inhibition at 1 µM [9] of the same molecule?
**A.** Its inhibition at 1 µM is 16%.

**Q.** What about the inhibition at 1 µM [10] of the same molecule?
**A.** Its inhibition at 1 µM is 16%.

**Q.** What about the inhibition at 1 µM [11] of the same molecule?
**A.** Its inhibition at 1 µM is 62%.

**Q.** What about the inhibition at 1 µM [12] of the same molecule?
**A.** The inhibition at 1 µM was 35%.

**Q.** What about the inhibition at 1 µM [13] of the same molecule?
**A.** Its inhibition at 1 µM is 5%.

**Q.** And the inhibition at 1 µM [14]?
**A.** The inhibition at 1 µM was 20%.

**Q.** And the inhibition at 1 µM [15]?
**A.** Its inhibition at 1 µM is 60%.

**Q.** And the inhibition at 1 µM [16]?
**A.** Its inhibition at 1 µM is 36%.

**Q.** What about the inhibition at 1 µM [17] of the same molecule?
**A.** Its inhibition at 1 µM is 68%.

**Q.** And the inhibition at 1 µM [18]?
**A.** The inhibition at 1 µM was 48%.

**Q.** And the inhibition at 1 µM [19]?
**A.** Its inhibition at 1 µM is 27%.

**Q.** And the inhibition at 1 µM [20]?
**A.** The inhibition at 1 µM was 16%.

**Q.** What about the inhibition at 1 µM [21] of the same molecule?
**A.** The inhibition at 1 µM was 29%.

**Q.** What about the inhibition at 1 µM [22] of the same molecule?
**A.** The inhibition at 1 µM was 3%.

**Q.** What about the inhibition at 1 µM [23] of the same molecule?
**A.** Its inhibition at 1 µM is 55%.

**Q.** What about the inhibition at 1 µM [24] of the same molecule?
**A.** Its inhibition at 1 µM is 47%.

**Q.** And the inhibition at 1 µM [25]?
**A.** Its inhibition at 1 µM is 22%.

**Q.** And the inhibition at 1 µM [26]?
**A.** Its inhibition at 1 µM is 29%.

**Q.** And the inhibition at 1 µM [27]?
**A.** Its inhibition at 1 µM is 15%.

**Q.** What about the inhibition at 1 µM [28] of the same molecule?
**A.** Its inhibition at 1 µM is 47%.

**Q.** What about the inhibition at 1 µM [29] of the same molecule?
**A.** The inhibition at 1 µM was 37%.

**Q.** And the inhibition at 1 µM [30]?
**A.** The inhibition at 1 µM was 13%.

**Q.** What about the inhibition at 1 µM [31] of the same molecule?
**A.** The inhibition at 1 µM was 38%.

**Q.** And the inhibition at 1 µM [32]?
**A.** Its inhibition at 1 µM is 36%.

**Q.** And the inhibition at 1 µM [33]?
**A.** The inhibition at 1 µM was 8%.

**Q.** And the inhibition at 1 µM [34]?
**A.** The inhibition at 1 µM was -5%.

**Q.** And the inhibition at 1 µM [35]?
**A.** The inhibition at 1 µM was 5%.

**Q.** What about the inhibition at 1 µM [36] of the same molecule?
**A.** Its inhibition at 1 µM is 12%.

**Q.** What about the inhibition at 1 µM [37] of the same molecule?
**A.** The inhibition at 1 µM was -2%.

**Q.** What about the inhibition at 1 µM [38] of the same molecule?
**A.** Its inhibition at 1 µM is 42%.

**Q.** What about the inhibition at 1 µM [39] of the same molecule?
**A.** The inhibition at 1 µM was 64%.

**Q.** And the inhibition at 1 µM [40]?
**A.** Its inhibition at 1 µM is 65%.

**Q.** And the inhibition at 1 µM [41]?
**A.** The inhibition at 1 µM was 11%.

Source: publication PMC11842588, “A first-in-class selective inhibitor of ERK1/2 and ERK5 overcomes drug resistance with a single-molecule strategy” (Signal Transduction and Targeted Therapy, 2025)
